Where two headings read alike, the source gives them in different places.
Experiments:
mouse HDAC6 = biological target: T1, mouse HDAC6 (Mus musculus, UniProt Q9Z2V5); assay: In vitro HDAC inhibition activity, [3H]-acetylated histone substrate, HDAC6; type: biochemical; settings: Table 3
T1 construct: HA; made in house; host or cells: 293T cells (transient transfection, anti-HA immunoprecipitation, HA peptide elution)
T1 sequence (Q9Z2V5 1-1149): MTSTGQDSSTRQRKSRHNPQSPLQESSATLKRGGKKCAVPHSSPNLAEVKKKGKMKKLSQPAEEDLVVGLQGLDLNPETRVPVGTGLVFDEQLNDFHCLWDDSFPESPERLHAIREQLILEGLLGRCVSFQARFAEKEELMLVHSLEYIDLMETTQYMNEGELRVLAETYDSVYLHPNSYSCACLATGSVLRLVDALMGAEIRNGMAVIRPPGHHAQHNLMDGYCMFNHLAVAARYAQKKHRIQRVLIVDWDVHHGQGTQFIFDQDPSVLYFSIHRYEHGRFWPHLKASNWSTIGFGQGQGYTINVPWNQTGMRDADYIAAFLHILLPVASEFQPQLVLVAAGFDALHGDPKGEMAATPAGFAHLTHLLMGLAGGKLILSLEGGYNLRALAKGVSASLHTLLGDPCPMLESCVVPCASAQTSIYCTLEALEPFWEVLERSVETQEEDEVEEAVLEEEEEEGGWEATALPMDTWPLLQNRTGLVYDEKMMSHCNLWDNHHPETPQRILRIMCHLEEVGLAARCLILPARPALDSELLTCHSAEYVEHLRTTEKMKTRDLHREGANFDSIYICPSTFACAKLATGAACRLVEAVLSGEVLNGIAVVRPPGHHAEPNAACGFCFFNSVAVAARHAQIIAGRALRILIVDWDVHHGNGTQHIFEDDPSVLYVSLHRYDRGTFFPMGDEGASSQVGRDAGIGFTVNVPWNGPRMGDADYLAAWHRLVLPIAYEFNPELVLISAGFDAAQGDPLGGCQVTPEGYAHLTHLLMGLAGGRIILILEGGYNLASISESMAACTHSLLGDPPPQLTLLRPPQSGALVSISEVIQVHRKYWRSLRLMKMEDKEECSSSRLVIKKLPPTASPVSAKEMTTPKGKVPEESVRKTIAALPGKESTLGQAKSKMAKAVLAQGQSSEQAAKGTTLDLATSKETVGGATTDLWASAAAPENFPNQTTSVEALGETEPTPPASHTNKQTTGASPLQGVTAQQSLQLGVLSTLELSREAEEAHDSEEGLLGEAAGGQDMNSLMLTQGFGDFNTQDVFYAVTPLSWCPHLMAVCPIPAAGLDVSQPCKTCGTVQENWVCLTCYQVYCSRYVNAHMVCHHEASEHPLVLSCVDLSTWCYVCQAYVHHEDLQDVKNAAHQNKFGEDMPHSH

[1] = system: human wild-type p21 promoter; assay: p21 promoter-inducing activity (luciferase) in MFLL-9 cells; type: cell-based
[2] = Cytotoxicity test (free-LDH ratio), TIG-3; type: cell-based; settings: human, TIG-3 human normal lung cells, 48 hours, free-LDH ratio 50%, read-out: LD50 (nM) TIG-3
Procedure: This was then cultured for 18 hours.

human HDAC4 = biological target: T2, human HDAC4 (Homo sapiens, UniProt P56524); assay: In vitro HDAC inhibition activity, [3H]-acetylated histone substrate, HDAC4; type: biochemical; settings: Table 3
T2 construct: FLAG; made in house; host or cells: 293T cells (transient transfection, anti-FLAG immunoprecipitation, FLAG peptide elution)
T2 sequence (O15379 whole entry partner): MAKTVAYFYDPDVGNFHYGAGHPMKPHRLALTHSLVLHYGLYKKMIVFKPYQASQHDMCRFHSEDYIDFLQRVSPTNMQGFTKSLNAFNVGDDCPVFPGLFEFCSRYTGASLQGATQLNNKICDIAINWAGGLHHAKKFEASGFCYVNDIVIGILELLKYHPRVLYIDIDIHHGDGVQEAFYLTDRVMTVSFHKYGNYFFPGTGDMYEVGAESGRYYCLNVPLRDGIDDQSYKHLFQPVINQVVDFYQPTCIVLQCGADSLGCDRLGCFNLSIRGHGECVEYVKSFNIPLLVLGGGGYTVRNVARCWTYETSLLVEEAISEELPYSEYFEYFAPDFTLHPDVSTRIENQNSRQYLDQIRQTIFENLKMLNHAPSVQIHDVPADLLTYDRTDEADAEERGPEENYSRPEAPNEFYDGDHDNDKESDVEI
T2 sequence (P56524 whole entry): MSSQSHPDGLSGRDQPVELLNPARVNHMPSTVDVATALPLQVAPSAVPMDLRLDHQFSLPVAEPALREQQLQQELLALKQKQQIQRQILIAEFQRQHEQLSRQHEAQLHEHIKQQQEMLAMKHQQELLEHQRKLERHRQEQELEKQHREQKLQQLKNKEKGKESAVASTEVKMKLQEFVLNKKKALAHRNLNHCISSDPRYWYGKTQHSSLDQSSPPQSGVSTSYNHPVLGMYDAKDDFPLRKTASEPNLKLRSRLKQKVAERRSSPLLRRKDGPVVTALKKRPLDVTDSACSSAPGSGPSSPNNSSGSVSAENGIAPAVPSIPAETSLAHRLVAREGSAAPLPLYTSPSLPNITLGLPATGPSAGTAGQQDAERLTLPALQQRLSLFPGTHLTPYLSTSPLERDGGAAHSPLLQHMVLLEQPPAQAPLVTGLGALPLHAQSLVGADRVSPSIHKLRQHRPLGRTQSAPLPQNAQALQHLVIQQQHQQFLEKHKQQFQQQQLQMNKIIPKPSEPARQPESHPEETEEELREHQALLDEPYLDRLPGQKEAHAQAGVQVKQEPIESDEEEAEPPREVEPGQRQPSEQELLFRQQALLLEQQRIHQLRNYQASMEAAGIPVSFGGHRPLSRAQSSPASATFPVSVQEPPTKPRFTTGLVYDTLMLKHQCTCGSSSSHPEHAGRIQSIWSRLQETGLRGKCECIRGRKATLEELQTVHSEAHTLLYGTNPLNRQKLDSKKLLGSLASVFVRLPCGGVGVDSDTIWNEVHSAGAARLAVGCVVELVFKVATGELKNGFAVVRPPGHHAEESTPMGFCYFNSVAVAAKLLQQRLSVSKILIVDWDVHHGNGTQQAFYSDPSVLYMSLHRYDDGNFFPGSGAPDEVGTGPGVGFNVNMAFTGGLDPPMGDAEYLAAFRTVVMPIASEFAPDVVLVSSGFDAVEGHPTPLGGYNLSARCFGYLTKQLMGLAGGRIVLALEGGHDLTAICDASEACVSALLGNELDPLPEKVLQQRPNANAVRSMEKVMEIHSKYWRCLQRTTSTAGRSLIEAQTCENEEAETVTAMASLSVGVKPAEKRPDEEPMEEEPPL

Q: Which IC50 (mouse HDAC6; hybrid with DTT (/DTT)) does the source give for `CC[C@H](C)[C@@H]1NC(=O)[C@@H](Cc2ccc(OC)cc2)NC(=O)[C@H](CCCCCSSc2ccncc2)NC(=O)[C@H]2CCCN2C1=O` [SCOP 402, cyclo(-L-Am7(S4Py)-D-Tyr(Me)-L-Ile-D-Pro-)] here?
A: 2010 nM

Q: And the IC50 (mouse HDAC6; hybrid, without DTT)?
A: 1610 nM

Q: What about the EC50 ([1]; Table 3, hybrid with DTT (/DTT)) of the same compound?
A: 470 nM

Q: And the EC50 ([1]; Table 3, hybrid, without DTT)?
A: 1310 nM

Q: What about the CC50 at 48 h ([2]; with DTT (/DTT)) of the same compound?
A: 4460 nM

Q: What about the CC50 at 48 h ([2]; without DTT) of the same compound?
A: 13300 nM

Q: And the IC50 (human HDAC4; hybrid with DTT (/DTT))?
A: 1.12 nM

Q: And the IC50 (human HDAC4; hybrid, without DTT)?
A: 68.3 nM

Source: US7488712B2, “Histone deacetylase inhibitors and methods for producing the same” (Kyushu Institute of Technology, priority 2002, dated 2009)
